Laboratory results as given in the NIST ThermoML archive (doi:10.1021/je300997v).
Numbers after ± are expanded uncertainties.

Experiments:
[1] = xn = mol fraction of the nth substance listed; conditions: 298.2 K, 101 kPa, Liquid; for viscosity: Capillary tube (Ostwald / Ubbelohde) method; for mass density: Pycnometric method; for electrical conductivity: conductivity meter
[2] = Crystal; DTA

| Structure (SMILES) | viscosity ([1]; x1 = 0.6667) [mPa·s] | viscosity ([1]; x1 = 0.75) [mPa·s] | viscosity ([1]; x1 = 0.7963) [mPa·s] | viscosity ([1]; x1 = 0.8333) [mPa·s] | viscosity ([1]; x1 = 0.8571) [mPa·s] | mass density ([1]; x1 = 0.6667) [kg/m3] | mass density ([1]; x1 = 0.75) [kg/m3] | mass density ([1]; x1 = 0.7963) [kg/m3] | mass density ([1]; x1 = 0.8333) [kg/m3] | mass density ([1]; x1 = 0.8571) [kg/m3] | electrical conductivity ([1]; x1 = 0.6667) [S/m] | electrical conductivity ([1]; x1 = 0.75) [S/m] | electrical conductivity ([1]; x1 = 0.7963) [S/m] | electrical conductivity ([1]; x1 = 0.8333) [S/m] | electrical conductivity ([1]; x1 = 0.8571) [S/m] | Normal melting temperature [2] [°C] |
| --- | --- | --- | --- | --- | --- | --- | --- | --- | --- | --- | --- | --- | --- | --- | --- | --- |
| Cc1ccccc1O [2-methylphenol] + C[N+](C)(C)CCO.[Cl-] | 207.41 ± 12 | 77.65 ± 4 | 46.95 ± 2 | 34.9 ± 1.4 | 27.82 ± 1.1 | 1077.6 ± 1.2 | 1070.7 ± 1.2 | 1066.4 ± 1.2 | 1063.1 ± 1.2 | 1060.6 ± 1.2 | 0.083 ± 0.001 | 0.121 ± 0.002 | 0.141 ± 0.002 | 0.145 ± 0.002 | 0.138 ± 0.002 |  |
| C[N+](C)(C)CCO.[Cl-] [choline chloride] |  |  |  |  |  |  |  |  |  |  |  |  |  |  |  | 304.1 ± 0.5 |
